Patent US9879004B2, “Substituted acetylene derivatives and their use as positive allosteric modulators of mGluR4” (Merck Patent GmbH, priority 2013, dated 2018)

The compounds below were run against T1, mGluR4 (HEK293T-hmGluR4 cells) (Homo sapiens, UniProt Q14833) (assay: HEK-293 mGluR4 cells cAMP assay with EC20 L-Glutamate (HTRF)). Details: positive allosteric activity at EC20 L-Glutamate, 10 μM Forskolin, cAMP HTRF readout, read-out: hrmGluR4/HEK293T-hmGluR4 (EC50).
T1 construct: host or cells: HEK293T
T1 sequence (Q14833 33-912): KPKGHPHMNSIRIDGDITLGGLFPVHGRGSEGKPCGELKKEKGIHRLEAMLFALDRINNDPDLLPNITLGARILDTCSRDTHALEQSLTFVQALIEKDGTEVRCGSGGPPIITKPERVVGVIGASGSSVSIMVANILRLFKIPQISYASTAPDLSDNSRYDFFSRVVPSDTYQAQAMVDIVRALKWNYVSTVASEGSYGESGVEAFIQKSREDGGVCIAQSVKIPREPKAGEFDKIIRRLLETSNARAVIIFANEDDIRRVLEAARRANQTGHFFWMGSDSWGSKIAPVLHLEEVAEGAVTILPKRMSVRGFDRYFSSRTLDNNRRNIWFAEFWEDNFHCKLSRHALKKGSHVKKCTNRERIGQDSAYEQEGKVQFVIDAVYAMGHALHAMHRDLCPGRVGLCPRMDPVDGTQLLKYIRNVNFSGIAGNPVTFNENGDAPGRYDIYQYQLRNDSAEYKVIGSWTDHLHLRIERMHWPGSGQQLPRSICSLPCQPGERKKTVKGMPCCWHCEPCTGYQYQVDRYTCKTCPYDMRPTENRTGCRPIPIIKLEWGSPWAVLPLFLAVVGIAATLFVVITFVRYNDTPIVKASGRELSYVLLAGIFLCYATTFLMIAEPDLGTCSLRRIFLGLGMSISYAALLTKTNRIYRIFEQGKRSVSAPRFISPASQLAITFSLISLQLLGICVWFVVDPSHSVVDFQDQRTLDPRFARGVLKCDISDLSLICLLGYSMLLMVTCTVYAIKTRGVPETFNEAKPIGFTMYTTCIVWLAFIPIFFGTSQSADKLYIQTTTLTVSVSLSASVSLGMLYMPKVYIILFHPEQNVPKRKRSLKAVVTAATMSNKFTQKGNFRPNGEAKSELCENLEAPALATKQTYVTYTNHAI
Type: cell-based
Method: HEK-293 mGluR4 cells cAMP assay with EC20 L-Glutamate
Using mGluR4 suspension cell format, 10 μM Forskolin (final conc.) used to induce the production of cAMP.
Test the positive allosteric activity of the compounds of the invention at EC20 (2.3 μM for mGluR4 and 4.3 μM for mGluR6) L-Glutamate,
cAMP dymanic2 kit is intended for the direct quantitative determination of cAMP and its principle is based on HTRF technology.
Cells: HEK293T mGluR4 cells from Multispan, cat# C1191a lot# C1191a-040910 Culture Media: DMEM+GlutaMAX1+10% dialyzed FBS, 100 mM Sodium Pyruvate, 1 ug/ml puromycin.
Glutamine Starvation Media: DMEM without GlutaMax for plating the cells (glutamine starvation overnight). DMEM high Glucose, without phenol red, glutamine, or sodium pyruvate+10% dialyzed FBS, 100 mM Sodium Pyruvate, 1 ug/ml puromycin, 10 mM Hepes.
Cell Preparation: split cells at 80%-90% confluence. The following day, rinse the cells with DMEM without GlutaMax and change to Glutamine Starvation Media. Incubate overnight.
Prepare compound plate: Perform compound serial dilution (uses Matrix 4341 plate), using the Bravo liquid handling platform protocol (compound serial dilution) which adds DMSO to columns 1-24 (except cols. 3 and 13). Serial dilute compounds located in columns 3 and 13 at a 1:3 ratio; 10 points (10 ul of 3 mM compound into 20 ul DMSO). Use the Bravo liquid handling platform to transfer 1 ul from the serial dilution plate into Matrix 4314 plate to create stamp plates.
Dilute 20 mM Forskolin (in DMSO) stock solution in HBSS buffer to make a 20 uM solution (forskolin buffer; 2× solution). To the forskolin buffer, add glutamate to a concentration of 8 uM (compound dilution buffer; 2×EC20 glutamate and forskolin).
Using a multidrop, add 50 ul/well of compound dilution buffer to columns 1-22 of the 2 ul compound stamp plate. Columns 23 and 24 receive forskolin buffer containing 400 uM glutamate (EC100 glutamate; 2× solution). Columns 1 and 2 receive compound dilution buffer containing EC20 glutamate, which is the basal control. Add a glutamate dose response to row P of compound plate. Prepare the dose response by serial diluting glutamate at a 1:3 ratio in forskolin buffer starting at 2 mM glutamate (2×). Dilute the glutamate 9 times and transfer to compound plate.
Harvest cells: Rinse cells with pre-warmed HBSS-10 mM HEPES (without Ca Mg) and dissociate the cells from the flask with versene. Centrifuge the cells, remove the supernatant and suspend in pre-warmed HBSS+10 mM Hepes. Count the cells and centrifuge. Remove the supernatant and suspend the cells in HBSS+Hepes (with Ca Mg) at a density of 400,000 cells/ml.
Dispense 5 ul from the diluted compound plate into Greiner low volume cell plate using the Bravo liquid handling platform. Using a Multidrop with the small tubing cassette, dispense 5 ul of cells (2000 cells/well) onto the compounds contained in the low volume plates. Incubate the cells at 37° C., 5% CO2 for 30 minutes in the incubator.
Prepare cAMP-d2 and anti-cAMP-Crytate according to the instructions for the two step assay (see Cisbio manual) and add 10 ul of the mixed reagent to each well of the assay plate using the Multidrop. Incubate at room temperature for 60 minutes and read on the Envision plate reader using the mGluR low volume cAMP HTRF 384 well protocol. The readout is the calculated fluorescence ratio ([…]*10000).
`C(#Cc1ccnc2ccccc12)c1ccccc1` [Compound 1, 4-Phenylethynyl-quinoline] was tested, and the EC50 was under 1 µM.
`Fc1cccc(C#Cc2ccnc3ccccc23)c1` [Compound 2, 4-(3-Fluoro-phenylethynyl)-quinoline] gave an EC50 of under 1 µM.
In the case of `C(#Cc1ccnc2ccccc12)c1ccsc1` [Compound 3, 4-Thiophen-3-ylethynyl-quinoline], the EC50 is reported as under 1 µM.
Work on `Fc1ccc(C#Cc2ccnc3ccccc23)cc1` [Compound 4, 4-(4-Fluoro-phenylethynyl)-quinoline] yielded an EC50 of under 1 µM.
`Fc1ccc(C#Cc2ccnc3ccccc23)cc1F` [Compound 5, 4-(3,4-Difluoro-phenylethynyl)-quinoline] gave an EC50 of under 1 µM.
For `C(#Cc1ccnc2ccccc12)c1cccs1` [Compound 6, 4-Thiophen-2-ylethynyl-quinoline], the EC50 was 1 to 10 µM.
`Fc1ccccc1C#Cc1ccnc2ccccc12` [Compound 7, 4-(2-Fluoro-phenylethynyl)-quinoline] gave an EC50 of 1 to 10 µM.
`Fc1ccccc1C#Cc1ccnc2[nH]ccc12` [Compound 8, 4-(2-Fluoro-phenylethynyl)-1H-pyrrolo[2,3-b]pyridine] showed an EC50 of 1 to 10 µM.
For `Clc1cccc(C#Cc2ccnc3ccccc23)c1` [Compound 9, 4-(3-Chloro-phenylethynyl)-quinoline], the EC50 was 1 to 10 µM.
